Test results from patent publication US10899774B2, “IRAK4 modulators” (Genentech, Inc., priority 2017, dated 2021).

Molecular target: human IRAK4 (Homo sapiens (Human), UniProt Q9NWZ3)
Experiment: IRAK4 kinase inhibition, Transcreener fluorescence polarization (ADP detection)
Assay type: biochemical
Settings: recombinant full-length His6-IRAK4; 1.25 nM IRAK4; 125 μM ATP; 90 min; ATP Km 642 μM
Description: Compounds were assayed for inhibition of human IRAK4 and IRAK1 catalytic activity using recombinant enzyme produced from insect cells. Full-length IRAK4 protein, carrying an N-terminal His6-Tag, was obtained from Life Technologies (Carlsbad, Calif., USA). The IRAK1 construct was produced internally and was comprised of IRAK1 residues Arg194 to Ser712, preceded by an NH2-terminal His6 tag and the coding sequence for glutathione-S-transferase.
Kinase activities were assayed using the Transcreener-Fluorecescence polarization platform (BelBrook Labs, Madison, Wis., USA) that measures amounts of the reaction product, ADP.
384 well assay plates spotted with compound received 4 μl of a 2× substrate (ATP+peptide) mix in reaction buffer, followed by 4 μl of 2× enzyme diluted in reaction buffer.

Sequence of human IRAK4 (Q9NWZ3 whole entry): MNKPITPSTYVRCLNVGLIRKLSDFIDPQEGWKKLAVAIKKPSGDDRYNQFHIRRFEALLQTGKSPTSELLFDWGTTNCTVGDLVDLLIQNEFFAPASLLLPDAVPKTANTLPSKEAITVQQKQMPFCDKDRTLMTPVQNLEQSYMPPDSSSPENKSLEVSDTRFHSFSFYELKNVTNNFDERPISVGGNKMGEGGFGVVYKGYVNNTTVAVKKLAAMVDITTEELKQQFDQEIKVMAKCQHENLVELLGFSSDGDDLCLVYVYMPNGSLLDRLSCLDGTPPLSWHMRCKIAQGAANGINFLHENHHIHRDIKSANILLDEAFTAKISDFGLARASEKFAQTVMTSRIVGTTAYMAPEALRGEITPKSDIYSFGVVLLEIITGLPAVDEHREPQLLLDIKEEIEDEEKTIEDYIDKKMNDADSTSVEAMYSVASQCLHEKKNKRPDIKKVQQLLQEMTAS

Compound | Ki [µM]
Cn1ccc(C(=O)Nc2cc3c(cc2N2CCOCC2)O[C@](C)(CO)C3)n1 (single isomer, unassigned) [Example 16] | 0.048
Cn1ccc(C(=O)Nc2cc3c(cc2N2CCOCC2)O[C@@](C)(CO)C3)n1 (single isomer, unassigned) [Example 17] | 0.12
Cn1nnc2c(C(=O)Nc3cc4c(cc3N3CCOCC3)O[C@@](C)(CO)C4)cncc21 (single isomer, unassigned) [Example 67] | 0.18
Cn1nnc2c(C(=O)Nc3cc4c(cc3N3CCOCC3)O[C@](C)(CO)C4)cncc21 (single isomer, unassigned) [Example 68] | 0.07
CC1(C)Cc2cc(NC(=O)c3cnn4c3OCCC4)c(N3CCOCC3)cc2O1 [Example 1, N-(2,2-Dimethyl-6-morpholino-2,3-dihydrobenzofuran-5-yl)-6,7-dihydro-5H-pyrazolo[5,1-b][1,3]oxazine-3-carboxamide] | 0.067
Cc1cncc(C(=O)Nc2cc3c(cc2N2CCOCC2)OC(C)(C)C3)n1 [Example 7, N-(2,2-Dimethyl-6-morpholino-2,3-dihydrobenzofuran-5-yl)-6-methylpyrazine-2-carboxamide] | 0.043
CC1(C)Cc2cc(NC(=O)c3cccc(F)n3)c(N3CCOCC3)cc2O1 [Example 8, N-(2,2-Dimethyl-6-morpholino-2,3-dihydrobenzofuran-5-yl)-6-fluoropicolinamide] | 0.045
CC1(C)Cc2cc(NC(=O)c3ccnc(S(C)(=O)=O)n3)c(N3CCOCC3)cc2O1 [Example 9, N-(2,2-Dimethyl-6-morpholino-2,3-dihydrobenzofuran-5-yl)-2-(methylsulfonyl)pyrimidine-4-carboxamide] | 0.53
CC1(C)Cc2cc(NC(=O)c3cnccn3)c(N3CCOCC3)cc2O1 [Example 11, N-(2,2-Dimethyl-6-morpholino-2,3-dihydrobenzofuran-5-yl)pyrazine-2-carboxamide] | 0.29
CC1(C)Cc2cc(NC(=O)c3ccc[nH]c3=O)c(N3CCOCC3)cc2O1 [Example 12, N-(2,2-Dimethyl-6-morpholino-2,3-dihydrobenzofuran-5-yl)-2-oxo-1,2-dihydropyridine-3-carboxamide] | 0.077
Cc1cnc(C(=O)Nc2cc3c(cc2N2CCOCC2)OC(C)(C)C3)cn1 [Example 13, N-(2,2-Dimethyl-6-morpholino-2,3-dihydrobenzofuran-5-yl)-5-methylpyrazine-2-carboxamide] | 0.28
CC1(C)Cc2cc(NC(=O)c3cnsn3)c(N3CCOCC3)cc2O1 [Example 14, N-(2,2-Dimethyl-6-morpholino-2,3-dihydrobenzofuran-5-yl)-1,2,5-thiadiazole-3-carboxamide] | 0.34
CC1(C)Cc2cc(NC(=O)c3cncc4[nH]cnc34)c(N3CCOCC3)cc2O1 [Example 21, N-(2,2-Dimethyl-6-morpholino-2,3-dihydrobenzofuran-5-yl)-3H-imidazo[4,5-c]pyridine-7-carboxamide] | 0.28
CC1(C)Cc2cc(NC(=O)c3c[nH]c4cccnc34)c(N3CCOCC3)cc2O1 [Example 28, N-(2,2-Dimethyl-6-morpholino-3H-benzofuran-5-yl)-1H-pyrrolo[3,2-b]pyridine-3-carboxamide] | 0.47
Cc1ccc(-c2cc3c(cc2NC(=O)c2cnc(C)o2)CC(C)(C)O3)nc1 [Example 29, N-[2,2-Dimethyl-6-(5-methyl-2-pyridyl)-3H-benzofuran-5-yl]-2-methyl-oxazole-5-carboxamide] | 0.23
CC1(C)Cc2cc(NC(=O)c3cccs3)c(N3CCOCC3)cc2O1 [Example 30, N-(2,2-Dimethyl-6-morpholino-2,3-dihydrobenzofuran-5-yl)thiophene-2-carboxamide] | 0.78

The remaining compounds from weak to strong by Ki, led by results:

Ki [µM] | Compound
0.042 | CC1(C)Cc2cc(NC(=O)c3ccccn3)c(N3CCOCC3)cc2O1 [Example 27, N-(2,2-Dimethyl-6-morpholino-2,3-dihydrobenzofuran-5-yl)picolinamide]
0.038 | Cc1nc(C(=O)Nc2cc3c(cc2N2CCOCC2)OC(C)(C)C3)cs1 [Example 6, N-(2,2-Dimethyl-6-morpholino-2,3-dihydrobenzofuran-5-yl)-2-methylthiazole-4-carboxamide]
0.037 | C[C@]1(CO)Cc2cc(NC(=O)c3csc4cc(Cl)cnc34)c(N3CCOCC3)cc2O1 (stereo in doubt) [Example 56, (R)-6-Chloro-N-(2-(hydroxymethyl)-2-methyl-6-morpholino-2,3-dihydrobenzofuran-5-yl)thieno[3,2-b]pyridine-3-carboxamide]
0.036 | CC1(C)Cc2cc(NC(=O)c3cnc4cccnn34)c(N3CCOCC3)cc2O1 [Example 15, N-(2,2-Dimethyl-6-morpholino-2,3-dihydrobenzofuran-5-yl)imidazo[1,2-b]pyridazine-3-carboxamide]
0.035 | Cc1nc2c(C(=O)Nc3cc4c(cc3N3CCOCC3)OC(C)(C)C4)cncc2[nH]1 [Example 25, N-(2,2-Dimethyl-6-morpholino-2,3-dihydrobenzofuran-5-yl)-2-methyl-3H-imidazo[4,5-c]pyridine-7-carboxamide]
0.035 | C[C@H]1COCCN1c1nc(C(=O)Nc2cc3c(cc2N2CCOCC2)OC(C)(C)C3)co1 [Example 26, (S)-N-(2,2-Dimethyl-6-morpholino-2,3-dihydrobenzofuran-5-yl)-2-(3-methylmorpholino)oxazole-4-carboxamide]
0.03 | CC1(C)Cc2cc(NC(=O)c3ccc(O)nn3)c(N3CCOCC3)cc2O1 [Example 2, N-(2,2-Dimethyl-6-morpholino-2,3-dihydrobenzofuran-5-yl)-6-hydroxypyridazine-3-carboxamide]
0.03 | CC1(C)Cc2cc(NC(=O)c3cccc4[nH]cnc34)c(N3CCOCC3)cc2O1 [Example 20, N-(2,2-Dimethyl-6-morpholino-2,3-dihydrobenzofuran-5-yl)-1H-benzo[d]imidazole-4-carboxamide]
0.027 | CC1(C)Cc2cc(NC(=O)c3cc4ccncc4o3)c(N3CCOCC3)cc2O1 [Example 10, N-(2,2-Dimethyl-6-morpholino-2,3-dihydrobenzofuran-5-yl)furo[2,3-c]pyridine-2-carboxamide]
0.025 | Cc1nc(C(=O)Nc2cc3c(cc2N2CCOCC2)OC(C)(C)C3)ccc1C#N [Example 5, 5-Cyano-N-(2,2-dimethyl-6-morpholino-2,3-dihydrobenzofuran-5-yl)-6-methylpicolinamide]
0.025 | CC1(C)Cc2cc(NC(=O)c3cccc(C(F)(F)F)n3)c(N3CCOCC3)cc2O1 [Example 22, N-(2,2-Dimethyl-6-morpholino-2,3-dihydrobenzofuran-5-yl)-6-(trifluoromethyl)picolinamide]
0.023 | Cc1ccc(C(=O)Nc2cc3c(cc2N2CCOCC2)OC(C)(C)C3)o1 [Example 31, N-(2,2-Dimethyl-6-morpholino-2,3-dihydrobenzofuran-5-yl)-5-methylfuran-2-carboxamide]
0.021 | C[C@]1(CO)Cc2cc(NC(=O)c3ccc4cccnn34)c(N3CCOCC3)cc2O1 (single isomer, unassigned) [Example 19]
0.019 | C[C@@]1(CO)Cc2cc(NC(=O)c3csc4cc(Cl)cnc34)c(N3CCOCC3)cc2O1 (stereo in doubt) [Example 57, (S)-6-Chloro-N-(2-(hydroxymethyl)-2-methyl-6-morpholino-2,3-dihydrobenzofuran-5-yl)thieno[3,2-b]pyridine-3-carboxamide]
0.019 | CC1COCCN1c1nc(C(=O)Nc2cc3c(cc2N2CCOCC2)OC(C)(C)C3)cs1 (stereo not drawn) [Example 32, N-(2,2-Dimethyl-6-morpholino-2,3-dihydrobenzofuran-5-yl)-2-(3-methylmorpholino)thiazole-4-carboxamide]
0.017 | CC1(C)Cc2cc(NC(=O)c3coc(-c4ccncn4)n3)c(N3CCOCC3)cc2O1 [Example 34, N-(2,2-Dimethyl-6-morpholino-2,3-dihydrobenzofuran-5-yl)-2-(pyrimidin-4-yl)oxazole-4-carboxamide]
0.013 | CC1(C)Cc2cc(NC(=O)c3csc4c(N)ncnc34)c(N3CCOCC3)cc2O1 [Example 3, 4-Amino-N-(2,2-dimethyl-6-morpholino-2,3-dihydrobenzofuran-5-yl)thieno[3,2-d]pyrimidine-7-carboxamide]
0.0077 | C[C@]1(CO)Cc2cc(NC(=O)c3ccc4cncnn34)c(N3CCOCC3)cc2O1 (single isomer, unassigned) [Example 24]
0.0071 | CC1(C)Cc2cc(NC(=O)c3cccc4[nH]nnc34)c(N3CCOCC3)cc2O1 [Example 4, N-(2,2-Dimethyl-6-morpholino-2,3-dihydrobenzofuran-5-yl)-1H-benzo[d][1,2,3]triazole-4-carboxamide]
0.0037 | Cc1cn(-c2nc(C(=O)Nc3cc4c(cc3N3CCOCC3)OC(C)(C)C4)co2)cn1 [Example 33, N-(2,2-Dimethyl-6-morpholino-2,3-dihydrobenzofuran-5-yl)-2-(4-methyl-1H-imidazol-1-yl)oxazole-4-carboxamide]
0.0036 | C[C@@]1(CO)Cc2cc(NC(=O)c3ccc4cncnn34)c(N3CCOCC3)cc2O1 (single isomer, unassigned) [Example 23]
0.0034 | C[C@@]1(CO)Cc2cc(NC(=O)c3ccc4cccnn34)c(N3CCOCC3)cc2O1 (single isomer, unassigned) [Example 18]
0.0014 | Cc1cc(-c2nc(C(=O)Nc3cc4c(cc3N3CCOCC3)OC(C)(C)C4)co2)ccn1 [Example 35, N-(2,2-Dimethyl-6-morpholino-2,3-dihydrobenzofuran-5-yl)-2-(2-methylpyridin-4-yl)oxazole-4-carboxamide]
